Laboratory results as given in US20250179126A1, “A NOVEL PEPTIDE FROM A PHOTOSYNTHETIC BACERIUM DIRECTLY TARGETS MITOCHONDRIA TO TRIGGER APOPTOSIS IN ADVANCED PROSTATE CANCER CELLS” (priority 2022, published 2025).

What was measured:
Type in all cases: cell-based, human
[1] = system: DU145 prostate cancer cells; experiment: MTT cell viability assay, DU145 prostate cancer cells; conditions: DU145 (p53-mutant, AR−), 24-72 hr; paclitaxel 1 nM
From the text: Cell viability was detected by MTT assays, and the control (PBS-treated) cells were considered 100% viable. Mean±SE (N=3). *P<0.05, **P<0.01, ***P<0.001.
(§1) Cell lines and culture: Human cancer and noncancer (immortalized and nonimmortalized) cell lines were obtained from the American Type Culture Collection [prostate cancer (PC3, DU145 and LNCaP), normal prostate (CRL11611), breast cancer (MCF-7), ovarian cancer (SK-OV3 adenocarcinoma), lung cancer (A549)]. MDD2 breast cancer cells (p53 dominant-negative) were provided courtesy of Dr Andrei V. Gudkov, Roswell Park Cancer Institute. 20 All cell lines were cultured in MEM-E (Invitrogen) supplemented with 10% heat-inactivated fetal bovine serum (Atlanta Biological, Inc.), 100 units/mL penicillin, and 100 μg/mL streptomycin at 37° C. in 5% CO2.

[2] = system: LNCaP prostate cancer cells; experiment: MTT cell viability assay, LNCaP prostate cancer cells; conditions: LNCaP (p53 wild-type, AR+), 24-72 hr; paclitaxel 1 nM
Description: as §1

[3] = system: PC3 prostate cancer cells; experiment: MTT cell viability assay, PC3 prostate cancer cells; conditions: PC3 (p53-null, AR−), 24-72 hr; paclitaxel 1 nM
Description: as §1

[4] = system: normal prostate cells CRL11611; experiment: MTT cell viability assay, normal prostate CRL11611 cells; conditions: normal prostate CRL11611 (p53+, AR+), 24-72 hr; paclitaxel 1 nM
From the text: FIG. 4A-4D: Effect of peptides on prostate cancer cell lines with differences in p53 and AR expression status. […] Control (PBS)-treated cells were considered to have 100% viability. Mean±SE (N=3).
as §1
Cytotoxicity assay: The MTT assay was performed as we previously described (Cha et al., Cancer Research 2020, 80: 1615-1623).

With `CSCC[C@H](NC(=O)CNC(=O)[C@H](CC(=O)O)NC(=O)[C@@H](NC(=O)[C@@H](NC(=O)[C@@H](NC(=O)CNC(=O)[C@H](CCC(N)=O)NC(=O)[C@H](CCSC)NC(=O)[C@H](CC(=O)O)NC(=O)[C@H](C)NC(=O)[C@H](C)NC(=O)[C@@H](NC(=O)[C@H](CO)NC(=O)[C@@H](N)CC(C)C)[C@@H](C)O)C(C)C)C(C)C)[C@@H](C)O)C(=O)N[C@@H](C)C(=O)N[C@@H](CO)C(=O)NCC(=O)N[C@@H](CC(C)C)C(=O)N[C@@H](CC(=O)O)C(=O)N[C@@H](CCCCN)C(=O)N[C@@H](CC(=O)O)C(=O)N[C@@H](Cc1ccc(O)cc1)C(=O)N[C@@H](CC(C)C)C(=O)N[C@@H](CCCCN)C(=O)N1CCC[C@H]1C(=O)N[C@@H](CC(=O)O)C(=O)N[C@@H](CC(=O)O)C(=O)O` [p28, LST AAD MQG VVT DGM ASG LDK DYL KPDD, reference compound] the “cytotoxic effect (MTT cell viability)” value [1] was “dose-dependent effect”, the “cytotoxic effect (MTT cell viability)” value [2] was “dose-dependent effect” and the “cytotoxic effect (MTT cell viability)” value [3] was “but not p53-null PC3 cells”. The “cytotoxic effect (MTT cell viability)” value [4] was “but not p53-null PC3 cells or normal CRL11611 cells”.
